Assay results reported in ChEMBL document CHEMBL1201862, “PubChem BioAssay data set” (2004).
The source made the active and inactive calls. Non-standard residues stand in square brackets, D forms with d. Residues, ends and D or L forms follow the SMILES beside them. ξ: configuration not given here. ξLac(3-iPr) = CC(C)CC(O)C(=O)O; NMeV = CN[CH](C(=O)O)C(C)C; NMeA = CN[CH](C)C(=O)O; βAla = NCCC(=O)O

Tests used:
[1] = target: 26S proteasome non-ATPase regulatory subunit 14 (Homo sapiens, UniProt O00487); test: inhibition of proteasome subunit RPN11 – biochemical, fluorescence polarization, uHTS hits, confirmation (AID 602368); format: functional
[2] = target: 72 kDa type IV collagenase (Homo sapiens, UniProt P08253); test: Dose Response validation of uHTS RPN11 inhibitor hits using a MMP-2 Fluorescence assay.; format: functional
[3] = target: Prothrombin (Bos taurus, UniProt P00735); test: thrombin protease inhibitors – biochemical, fluorescence polarization, uHTS hits, dose response (AID 602369); format: functional
[4] = target: T1, Mannose-6-phosphate isomerase (Homo sapiens, UniProt P34949); test: MPI inhibition at elevated mannose 6-phosphate – biochemical, fluorescence intensity, high mannose 6-phosphate, primary screen (AID 1220)
T1 sequence (P34949 whole entry): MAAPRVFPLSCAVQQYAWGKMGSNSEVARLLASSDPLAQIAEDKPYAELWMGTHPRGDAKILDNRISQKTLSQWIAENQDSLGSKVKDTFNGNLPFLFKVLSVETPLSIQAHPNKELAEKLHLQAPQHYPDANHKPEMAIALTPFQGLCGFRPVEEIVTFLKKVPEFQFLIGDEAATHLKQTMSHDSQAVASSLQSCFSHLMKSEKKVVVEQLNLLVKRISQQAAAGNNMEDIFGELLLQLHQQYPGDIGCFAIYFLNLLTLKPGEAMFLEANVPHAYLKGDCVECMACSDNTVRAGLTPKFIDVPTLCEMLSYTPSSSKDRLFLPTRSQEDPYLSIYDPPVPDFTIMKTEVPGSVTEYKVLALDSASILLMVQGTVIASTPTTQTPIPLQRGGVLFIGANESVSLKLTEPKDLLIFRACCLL

[5] = target: T2, High affinity choline transporter 1 (Homo sapiens, UniProt Q9GZV3); test: human choline transporter blockers, potency – cell-based, 5-point CRC, membrane potential dye, dose response (AID 504840); format: functional
T2 sequence (Q9GZV3 whole entry): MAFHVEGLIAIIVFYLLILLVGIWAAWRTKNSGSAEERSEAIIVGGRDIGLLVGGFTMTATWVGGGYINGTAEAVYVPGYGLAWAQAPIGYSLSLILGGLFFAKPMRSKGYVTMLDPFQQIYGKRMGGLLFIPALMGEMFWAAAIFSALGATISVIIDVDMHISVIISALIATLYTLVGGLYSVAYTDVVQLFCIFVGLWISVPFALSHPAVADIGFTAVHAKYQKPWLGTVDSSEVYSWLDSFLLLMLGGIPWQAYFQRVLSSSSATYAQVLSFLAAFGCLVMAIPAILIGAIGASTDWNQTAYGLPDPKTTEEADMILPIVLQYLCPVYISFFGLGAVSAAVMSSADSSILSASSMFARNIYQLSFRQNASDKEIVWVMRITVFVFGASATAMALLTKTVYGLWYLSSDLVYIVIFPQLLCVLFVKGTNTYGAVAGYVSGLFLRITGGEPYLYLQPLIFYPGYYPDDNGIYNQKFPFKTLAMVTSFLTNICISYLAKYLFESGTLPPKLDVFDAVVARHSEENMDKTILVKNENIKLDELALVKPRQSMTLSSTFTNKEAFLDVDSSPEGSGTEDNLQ

[6] = target: T3, Rac GTPase-activating protein 1 (Homo sapiens, UniProt Q9H0H5); test: blockers of MgcRacGAP-driven Rac1 GTP hydrolysis – biochemical, ADP Hunter fluorescence, primary and confirmatory, confirmation (AID 624330); format: functional
T3 sequence (Q9H0H5 whole entry): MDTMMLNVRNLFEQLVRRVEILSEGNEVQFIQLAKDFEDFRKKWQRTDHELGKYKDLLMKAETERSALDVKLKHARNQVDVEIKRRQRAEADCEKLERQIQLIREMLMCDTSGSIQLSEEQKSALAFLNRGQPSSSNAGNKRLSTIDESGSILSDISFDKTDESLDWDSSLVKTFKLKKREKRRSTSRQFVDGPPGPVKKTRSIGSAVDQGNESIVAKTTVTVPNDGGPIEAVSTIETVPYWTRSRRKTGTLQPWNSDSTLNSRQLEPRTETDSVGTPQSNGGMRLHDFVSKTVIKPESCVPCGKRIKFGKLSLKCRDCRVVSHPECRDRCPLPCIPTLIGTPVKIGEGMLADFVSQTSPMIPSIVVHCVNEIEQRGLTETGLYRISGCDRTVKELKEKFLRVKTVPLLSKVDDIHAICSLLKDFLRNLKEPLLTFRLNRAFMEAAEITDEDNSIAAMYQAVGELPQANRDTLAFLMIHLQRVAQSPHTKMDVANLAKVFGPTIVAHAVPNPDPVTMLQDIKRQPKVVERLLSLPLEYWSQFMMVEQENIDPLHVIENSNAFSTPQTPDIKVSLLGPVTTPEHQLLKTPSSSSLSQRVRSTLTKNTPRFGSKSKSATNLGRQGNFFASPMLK

[7] = test system: Escherichia coli; test: microbe, parasite or virus in culture
[8] = test system: Escherichia coli; test: microbe, parasite or virus in culture; remark: listed apart in the source
[9] = reduction of Shn3 3'UTR-driven luciferase in osteoblasts – cell-based, Clone20 osteoblasts, firefly luciferase, cherry-picked, dose response (AID 624132); format: functional;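 note: firefly luciferase luminescence from reporter carrying the Shn3 3'UTR in osteoblasts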
[10] = loss of viability in HepG2 cells – cell-based, CellTiter-Glo, cherry-picked, cytotoxicity control for Shn3 inhibitor project, dose response (AID 624134); format: functional
[11] = non-specific 3'UTR reporter inhibition in Clone20-Shn3RL – cell-based, Renilla luciferase, cherry-picked, counter-screen for Shn3 inhibitor project, dose response (AID 624133); format: functional
[12] = target: Induced myeloid leukemia cell differentiation protein Mcl-1 (Homo sapiens, UniProt Q07820); format: functional
[13] = test system: Vero; test: cells; format: functional, cell-based; details: Chlorocebus sabaeus
[14] = test system: Vero; test: cells; format: functional; details: Chlorocebus sabaeus
[15] = test system: INS1; test: suppression of NO production in INS-1E cells – cell-based, Griess absorbance, dry powder, dose response (AID 488866); format: functional; details: Rattus norvegicus
[16] = target: Delta-type opioid receptor (Homo sapiens, UniProt P41143); test: Counterscreen for agonists of heterodimerization of the mu 1 (OPRM1) and delta 1 (OPRD1) opioid receptors: Luminescence-based cell-based high throughput dose response assay to identify agonists of OPRD1 homodimerization. [Related pubchem assays (depositor defined):AID504326, AID504355, AID504692, AID504904, AID504905]; format: functional
[17] = target: Mu-type opioid receptor (Homo sapiens, UniProt P35372); test: Counterscreen for agonists of heterodimerization of the mu 1 (OPRM1) and delta 1 (OPRD1) opioid receptors: Luminescence-based cell-based high throughput dose response assay to identify agonists of OPRM1 homodimerization.; format: functional;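 note: U2OS cells expressing OPRM1 and beta-arrestin as split beta-galactosidase partners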
[18] = target: 5-hydroxytryptamine receptor 5A (Homo sapiens, UniProt P47898); test: Counterscreen for agonists of OPRM1-OPRD1 heterodimerization: luminescence-based cell-based high throughput dose response assay to identify agonists of 5-hydroxytryptamine (serotonin) 5A receptor (HTR5A). [Related pubchem assays (depositor defined):AID504326, AID504355, AID504692, AID504904, AID504905]; format: functional
[19] = target: T4, DNA repair protein RAD52 homolog (Homo sapiens, UniProt P43351); format: functional, biochemical
T4 sequence (P43351 whole entry): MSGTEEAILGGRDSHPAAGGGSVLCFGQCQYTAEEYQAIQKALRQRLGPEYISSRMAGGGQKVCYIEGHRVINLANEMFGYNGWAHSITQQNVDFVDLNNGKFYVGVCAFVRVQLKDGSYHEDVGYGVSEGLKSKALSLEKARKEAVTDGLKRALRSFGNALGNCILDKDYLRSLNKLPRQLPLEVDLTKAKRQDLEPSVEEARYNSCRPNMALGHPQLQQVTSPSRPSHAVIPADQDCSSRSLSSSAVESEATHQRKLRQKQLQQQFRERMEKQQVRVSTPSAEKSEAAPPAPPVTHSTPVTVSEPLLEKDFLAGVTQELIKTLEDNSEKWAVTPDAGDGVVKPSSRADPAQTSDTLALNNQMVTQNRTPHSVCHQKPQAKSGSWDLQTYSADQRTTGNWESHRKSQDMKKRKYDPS

[20] = target: Cytochrome P450 3A4 (Homo sapiens, UniProt P08684); details: Potency;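 note: confirmatory qHTS run detecting inhibitors and substrates of CYP3A4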
Cytochrome P450 3A4, sequence (P08684 whole entry): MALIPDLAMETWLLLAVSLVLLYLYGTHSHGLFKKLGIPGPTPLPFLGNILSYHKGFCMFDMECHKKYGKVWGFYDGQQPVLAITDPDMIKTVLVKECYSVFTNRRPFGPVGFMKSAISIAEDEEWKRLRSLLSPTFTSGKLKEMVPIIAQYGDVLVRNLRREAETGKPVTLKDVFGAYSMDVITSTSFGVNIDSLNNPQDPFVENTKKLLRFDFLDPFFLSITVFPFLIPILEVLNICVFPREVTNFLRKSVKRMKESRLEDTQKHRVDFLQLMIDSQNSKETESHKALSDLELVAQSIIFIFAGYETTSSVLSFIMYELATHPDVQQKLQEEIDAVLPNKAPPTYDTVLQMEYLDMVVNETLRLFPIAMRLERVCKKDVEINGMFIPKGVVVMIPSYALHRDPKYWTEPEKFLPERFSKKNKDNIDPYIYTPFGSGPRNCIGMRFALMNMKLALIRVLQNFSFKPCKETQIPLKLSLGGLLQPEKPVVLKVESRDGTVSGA

26S proteasome non-ATPase regulatory subunit 14, sequence (O00487 whole entry): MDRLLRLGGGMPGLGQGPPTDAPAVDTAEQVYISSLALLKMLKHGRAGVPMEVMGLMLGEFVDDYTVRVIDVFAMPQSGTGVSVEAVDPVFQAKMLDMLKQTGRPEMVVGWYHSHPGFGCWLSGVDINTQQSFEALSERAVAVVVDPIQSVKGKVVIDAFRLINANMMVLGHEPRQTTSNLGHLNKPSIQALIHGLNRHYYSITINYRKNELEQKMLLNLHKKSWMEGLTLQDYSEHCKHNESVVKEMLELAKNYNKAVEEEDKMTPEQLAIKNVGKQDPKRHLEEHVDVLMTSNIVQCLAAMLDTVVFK
72 kDa type IV collagenase, sequence (P08253 whole entry): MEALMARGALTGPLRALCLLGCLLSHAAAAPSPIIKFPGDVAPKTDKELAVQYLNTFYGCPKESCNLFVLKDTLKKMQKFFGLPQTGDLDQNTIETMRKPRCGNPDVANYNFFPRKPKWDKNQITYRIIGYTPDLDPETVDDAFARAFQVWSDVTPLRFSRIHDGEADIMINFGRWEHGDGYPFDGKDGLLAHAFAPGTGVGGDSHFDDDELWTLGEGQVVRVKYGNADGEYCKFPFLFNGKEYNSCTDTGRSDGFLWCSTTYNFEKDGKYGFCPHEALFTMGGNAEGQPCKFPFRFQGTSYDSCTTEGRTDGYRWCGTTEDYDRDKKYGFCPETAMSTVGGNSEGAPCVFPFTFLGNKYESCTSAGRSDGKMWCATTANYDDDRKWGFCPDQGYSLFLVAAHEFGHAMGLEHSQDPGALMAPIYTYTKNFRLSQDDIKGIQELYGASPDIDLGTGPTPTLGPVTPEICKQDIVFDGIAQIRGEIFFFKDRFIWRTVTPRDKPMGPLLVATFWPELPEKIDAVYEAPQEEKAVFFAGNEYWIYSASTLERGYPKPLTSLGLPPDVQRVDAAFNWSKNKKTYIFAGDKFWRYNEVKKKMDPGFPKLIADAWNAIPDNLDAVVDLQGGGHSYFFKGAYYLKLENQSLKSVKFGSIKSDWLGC
Mu-type opioid receptor, sequence (P35372 whole entry): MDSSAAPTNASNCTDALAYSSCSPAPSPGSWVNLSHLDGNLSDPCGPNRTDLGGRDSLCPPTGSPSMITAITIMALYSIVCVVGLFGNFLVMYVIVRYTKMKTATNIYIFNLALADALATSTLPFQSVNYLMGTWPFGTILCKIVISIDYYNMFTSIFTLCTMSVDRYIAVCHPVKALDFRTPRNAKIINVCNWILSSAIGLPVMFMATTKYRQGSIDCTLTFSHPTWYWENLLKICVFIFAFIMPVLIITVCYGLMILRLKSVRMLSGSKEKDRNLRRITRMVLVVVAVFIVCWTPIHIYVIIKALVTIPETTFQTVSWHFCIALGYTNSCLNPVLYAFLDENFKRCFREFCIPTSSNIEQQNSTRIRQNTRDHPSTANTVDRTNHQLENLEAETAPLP
5-hydroxytryptamine receptor 5A, sequence (P47898 whole entry): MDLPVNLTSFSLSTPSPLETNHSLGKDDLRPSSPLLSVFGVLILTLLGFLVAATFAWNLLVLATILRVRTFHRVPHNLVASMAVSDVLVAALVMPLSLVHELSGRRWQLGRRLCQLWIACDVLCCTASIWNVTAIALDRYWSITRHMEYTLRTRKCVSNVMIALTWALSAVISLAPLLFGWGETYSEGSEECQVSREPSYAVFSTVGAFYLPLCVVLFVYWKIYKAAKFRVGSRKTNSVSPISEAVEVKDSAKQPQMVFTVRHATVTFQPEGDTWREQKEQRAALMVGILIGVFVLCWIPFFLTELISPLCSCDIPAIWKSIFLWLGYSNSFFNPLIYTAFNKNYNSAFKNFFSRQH
Induced myeloid leukemia cell differentiation protein Mcl-1, sequence (Q07820 whole entry): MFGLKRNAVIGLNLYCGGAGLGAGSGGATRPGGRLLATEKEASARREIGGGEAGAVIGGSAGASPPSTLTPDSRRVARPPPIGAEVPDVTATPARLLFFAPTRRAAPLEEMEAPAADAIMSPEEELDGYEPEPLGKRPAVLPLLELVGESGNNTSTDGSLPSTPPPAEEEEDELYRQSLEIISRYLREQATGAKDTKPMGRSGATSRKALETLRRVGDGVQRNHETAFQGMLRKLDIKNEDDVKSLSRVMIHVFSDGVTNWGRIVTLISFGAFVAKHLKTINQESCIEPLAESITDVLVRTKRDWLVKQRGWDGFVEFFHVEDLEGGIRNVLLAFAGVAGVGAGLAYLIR
Delta-type opioid receptor, sequence (P41143 whole entry): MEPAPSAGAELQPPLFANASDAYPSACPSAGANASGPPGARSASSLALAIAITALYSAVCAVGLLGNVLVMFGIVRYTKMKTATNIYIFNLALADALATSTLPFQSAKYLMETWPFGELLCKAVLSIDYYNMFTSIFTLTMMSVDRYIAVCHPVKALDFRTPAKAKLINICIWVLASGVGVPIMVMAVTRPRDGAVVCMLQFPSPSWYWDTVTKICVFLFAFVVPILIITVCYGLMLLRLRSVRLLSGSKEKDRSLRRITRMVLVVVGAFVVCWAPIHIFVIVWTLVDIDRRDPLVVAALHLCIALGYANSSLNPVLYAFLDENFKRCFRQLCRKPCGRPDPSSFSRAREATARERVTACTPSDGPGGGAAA

Question: For Cc1sc2nc(CSc3nnc(Cc4cccs4)n3C3CCCCC3)[nH]c(=O)c2c1C, which IC50 [1] is on record?
Answer: 15.5 µM (active)

Question: What about the IC50 [2] of the same compound?
Answer: > 100 µM (inactive)

Question: And the IC50 [3]?
Answer: 21.5 µM (active)

Question: What does the source list for COc1cccc(CNc2ccc(N3CCCCC3)cc2)c1OC?
Answer: IC50 [4]: > 50 µM (not active); IC50 [5]: 11.5 µM (active); IC50 [6]: 5.96 µM (active)

Question: What does the source list for O=C(Nc1cccnc1)c1cccc(-c2cc3ccccc3oc2=O)c1?
Answer: IC50 [1]: 9.88 µM (active); IC50 [2]: > 100 µM (inactive); IC50 [3]: 53.8 µM (active)

Question: For CCOc1cccc2sc(N(CCCN(C)C)C(=O)c3ccc(S(=O)(=O)N4CCCCCC4)cc3)nc12, which AC50 [7] is on record?
Answer: 19.6 µM (active)

Question: And the AC50 [8]?
Answer: > 380 µM (inactive)

Question: What does the source list for Cc1ccc(-n2nnnc2-c2cnoc2-c2cccc(F)c2)cc1?
Answer: AC50 [7]: 24.5 µM (active); AC50 [8]: 126 µM (active)

Question: What does the source list for CCN(CC)S(=O)(=O)c1cc(NC(=O)C2CCN(c3ncnc4sc(C)c(C)c34)CC2)ccc1Cl?
Answer: AC50 [9]: 5.08 µM (active); AC50 [10]: 7.1 µM (active); AC50 [11]: 10.6 µM (active)

Question: Which IC50 [5] does the source give for Cc1ccc(-c2nnc(N3CC(C)OC(C)C3)c3ccccc23)cc1 (stereo not drawn) here?
Answer: 17.4 µM (active)

Question: What does the source list for CCN=c1ccc(Br)cc(C(=O)/C=C/c2ccc(Cl)cc2Cl)c1O?
Answer: IC50 [12]: 3.71 µM (active); IC50 [13]: 11.6 µM (active); CC50 [14]: 11.1 µM (active)

Question: What does the source list for Cc1ccc(C(=O)COC(=O)c2cc(O)nc3ccccc23)cc1C?
Answer: IC50 [1]: 22.3 µM (active); IC50 [2]: > 100 µM (inactive); IC50 [3]: > 100 µM (inactive)

Question: Which IC50 [13] does the source give for COc1ccccc1C1N(c2ccc(Cl)cc2)C(=O)C2CCCN21 (stereo not drawn) here?
Answer: > 25 µM (active)

Question: With CCN=C(S)NCCN1CCOCC1 as the compound, how does the AC50 [7] read?
Answer: 24.7 µM (active)

Question: For C[C@@H]1CN([C@@H](C)CO)C(=O)c2cccc(NC(=O)Nc3cccc4ccccc34)c2O[C@H]1CN(C)S(=O)(=O)c1ccc(-c2ccccc2)cc1, which AC50 [15] is on record?
Answer: > 195 µM (inactive)

Question: With COc1ccc(S(=O)(=O)N(C)C[C@@H]2Oc3c(NC(=O)Nc4cccc(C(F)(F)F)c4)cccc3C(=O)N([C@@H](C)CO)C[C@H]2C)cc1 as the compound, how does the AC50 [15] read?
Answer: 134 µM (active)

Question: With O=C1CCCC2=C1CC(C(=O)OCc1ccccc1)C(=O)N2Cc1ccccc1 (stereo not drawn) as the compound, how does the AC50 [8] read?
Answer: 13.8 µM (active)

Question: For CC(=O)C1CCC2C3CC=C4CC(SC(=N)N)CCC4(C)C3CCC12C (stereo not drawn), which EC50 [16] is on record?
Answer: > 10.3 µM (inactive)

Question: What about the EC50 [17] of the same compound?
Answer: > 92.4 µM (inactive)

Question: And the EC50 [18]?
Answer: > 92.4 µM (inactive)

Question: What about the AC50 [19] of the same compound?
Answer: 7.48 µM (active)

Question: Which results are given for CCC(C)C1NC(=O)C2CCCN2C(=O)C(CC(C)C)OC(=O)CCNC(=O)C(C)N(C)C(=O)C(C(C)C)N(C)C1=O (stereo not drawn) (cyclo([ξLac(3-iPr)]PI[NMeV][NMeA][βAla]); configuration not given here)?
Answer: IC50 [13]: 8.21 µM (active); CC50 [14]: > 25 µM (active)

Question: With O=C(/C=C/c1ccc(O)c(O)c1)OCCc1ccccc1 [CAFFEIC ACID PHENETHYL ESTER] as the compound, how does the AC50 [9] read?
Answer: 0.877 µM (active)

Question: And the AC50 [10]?
Answer: > 70 µM (inactive)

Question: And the AC50 [11]?
Answer: 1.11 µM (active)

Question: And the AC50 [20]?
Answer: 31.6 µM (inconclusive)
